In PMC3461998 (Angewandte Chemie (International ed. in English), 2012):
Where two headings read alike, the source gives them in different places.

Tests used:
[1] = molecular target: T1, cholera toxin B subunit (CTB) (Vibrio cholerae serotype O1, UniProt P01556); experiment: biochemical; assay type: binding
[2] = molecular target: T2, tetanus toxin C fragment (TTC) (Clostridium tetani, UniProt P04958); experiment: biochemical; assay type: binding
[3] = molecular target: T2, tetanus toxin C fragment (TTC); conditions: read-out: KD Reported; cited from earlier work
mouse IgG (mouse) = experiment: magnetic relaxation
avidin = avidin (Gallus gallus, UniProt P02701); experiment: bMR nanosensor competition assay, avidin-biotin; assay type: binding; conditions: control study with avidin bMR nanosensors
Chain of avidin (P02701 25-152, species assumed): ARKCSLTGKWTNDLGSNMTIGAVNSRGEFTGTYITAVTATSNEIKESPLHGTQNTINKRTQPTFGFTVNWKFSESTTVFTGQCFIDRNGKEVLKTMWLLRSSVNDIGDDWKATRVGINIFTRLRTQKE

[4] = molecular target: T1, cholera toxin B subunit (CTB); conditions: read-out: KD Reported; cited from earlier work
Concanavalin A = Concanavalin A (Canavalia ensiformis, UniProt P02866); conditions: read-out: KD Reported; cited from earlier work

T2 sequence (P04958 865-1315 limits assumed): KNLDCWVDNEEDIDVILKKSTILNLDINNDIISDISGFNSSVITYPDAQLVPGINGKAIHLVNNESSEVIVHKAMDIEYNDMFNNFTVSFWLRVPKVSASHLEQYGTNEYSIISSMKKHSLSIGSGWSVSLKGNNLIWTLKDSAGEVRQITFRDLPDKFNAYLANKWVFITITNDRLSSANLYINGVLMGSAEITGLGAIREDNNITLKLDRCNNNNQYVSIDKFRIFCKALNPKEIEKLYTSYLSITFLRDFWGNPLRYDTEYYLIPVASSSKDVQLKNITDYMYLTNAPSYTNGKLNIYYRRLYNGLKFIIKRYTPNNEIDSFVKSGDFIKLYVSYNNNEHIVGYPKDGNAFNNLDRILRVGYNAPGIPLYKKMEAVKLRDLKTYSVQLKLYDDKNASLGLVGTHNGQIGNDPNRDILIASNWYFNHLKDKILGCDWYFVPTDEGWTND
T1 sequence (P01556 22-124 limits assumed): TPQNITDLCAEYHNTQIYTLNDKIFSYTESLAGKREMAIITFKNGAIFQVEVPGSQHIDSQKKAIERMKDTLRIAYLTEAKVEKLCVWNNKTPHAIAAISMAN

## OC[C@H]1O[C@@H](O[C@H]2[C@H](O)[C@@H](O)C(O)O[C@@H]2CO)[C@H](O)[C@@H](O)[C@H]1O (mixture of isomers) [Lactose, lactose]
[1]
  Kd: 88 µM

## COc1cccc2c1C(=O)c1c(O)c3c(c(O)c1C2=O)C[C@@](O)(C(=O)CO)C[C@@H]3O[C@H]1C[C@H](N)[C@H](O)[C@H](C)O1 [Doxorubicin, doxorubicin]
[2]
  Kd: 4.1 µM
[3]
  Kd: 9.4 µM

## O=C[C@H](O)[C@@H](O)[C@@H](O)[C@H](O)CO [Galactose, galactose]
[1]
  Kd: 3.5 µM

## OC[C@H]1OC(O)[C@H](O)[C@@H](O)[C@@H]1O (stereo partly drawn) [Glucose, glucose]
[1]
  Kd: 36 µM

## O=C(O)c1cc(O)c2c(c1)C(=O)c1cccc(O)c1C2=O [Rhein, rhein]
[2]
  Kd: 33.6 µM

## OC[C@H]1O[C@@H]2O[C@H]3[C@H](O)[C@@H](O)[C@@H](O[C@H]4[C@H](O)[C@@H](O)[C@@H](O[C@H]5[C@H](O)[C@@H](O)[C@@H](O[C@H]6[C@H](O)[C@@H](O)[C@@H](O[C@H]7[C@H](O)[C@@H](O)[C@@H](O[C@H]8[C@H](O)[C@@H](O)[C@@H](O[C@H]1[C@H](O)[C@H]2O)O[C@@H]8CO)O[C@@H]7CO)O[C@@H]6CO)O[C@@H]5CO)O[C@@H]4CO)O[C@@H]3CO [β-Cyclodextrin, β-cyclodextrin]
[1]
  Kd: 3.6 µM

## Protein G (from UniProt P06654 34-417) (natural protein)
Mouse IgG (mouse)
  Kd: 0.4 pM

## bovine serum albumin
avidin
  changes in magnetic relaxation: nominal changes

## dextran
[4]
  Kd: 14000 µM
[1]
  Kd: 4.9 µM
Concanavalin A
  Kd: 0.09 µM
